Results on 21 compounds are retold here after patent US20260108527A1, “POLO LIKE KINASE 4 INHIBITORS” (ORIC Pharmaceuticals, Inc., priority 2022, published 2026).

The experiment deals with T1, human recombinant Aurora A (Homo sapiens, UniProt O14965).
T1 construct: purchased ThermoFisher PR5935A
T1 sequence (O14965 1-403): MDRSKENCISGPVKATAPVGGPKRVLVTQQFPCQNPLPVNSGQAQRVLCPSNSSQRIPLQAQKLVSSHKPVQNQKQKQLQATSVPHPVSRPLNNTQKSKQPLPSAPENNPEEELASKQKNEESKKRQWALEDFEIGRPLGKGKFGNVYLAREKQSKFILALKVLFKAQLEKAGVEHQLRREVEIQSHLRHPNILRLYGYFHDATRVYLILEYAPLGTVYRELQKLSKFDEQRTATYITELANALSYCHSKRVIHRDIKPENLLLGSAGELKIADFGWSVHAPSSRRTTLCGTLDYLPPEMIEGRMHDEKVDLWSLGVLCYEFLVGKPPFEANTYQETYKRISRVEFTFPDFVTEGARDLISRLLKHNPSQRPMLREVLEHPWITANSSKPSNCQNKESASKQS
Nature of the experiment: Aurora A Kinase Biochemical Assay (ADP-Glo). Conditions: selectivity ratio; Aurora A 2.5 nM, 20 μM ATP. The protocol: Activity of human recombinant Aurora A (ThermoFisher, cat #PR5935A) was measured by quantification of adenosine diphosphate (ADP) using the ADP-Glo Kinase Assay Kit (Promega, cat #V9102). Test compounds were solubilized in dimethyl sulfoxide (DMSO) and dispensed into 384-well white polystyrene nonbinding plates (Greiner, cat #781094) using the Echo acoustic dispenser (Labcyte Inc.) in a 11-point 3-fold titration in duplicates. 5 μL of 5.0 nM Aurora A in assay buffer (50 mM HEPES, pH 7.5, 0.01% Brij-35, 0.01% BSA, 10 mM MgCl2, 1 mM EGTA, 1 mM DTT) was added to the plates. Test compounds and Aurora A were incubated for 15 minutes at room temperature (RT). Then 5 μL of a 40 μM adenosine triphosphate (ATP) (Promega, cat #V915B) and 9.3 μM Myelin Basic Protein (MBP) (SignalChem, cat #M42-51N) substrate solution in assay buffer was added and the reaction mixture was incubated for 2 hours at RT. The final concentration of Aurora A, ATP and MBP in the reactions were 2.5 nM, 20 μM and 4.7 μM, respectively. Reactions were stopped and the remaining ATP depleted by adding 10 μL of ADP-Glo reagent (Promega, cat #V912B) and incubating for 40 minutes at RT. The simultaneous conversion of the remaining ADP to ATP and measurement of the newly synthesized ATP was achieved by addition of 20 μL Kinase Detection reagent (Promega, cat #V914B), incubation for 30 min at RT, and luminescence detection using the EnVision plate reader (PerkinElmer). Reactions lacking Aurora A were used as 100% inhibition controls. Reactions containing DMSO alone were used as 0% inhibition controls. The IC50 values reported in Table 2 were determined using four parameter non-linear regression curve fit.
On the technique in general: ADP-Glo first removes unused ATP, then detects ADP through luciferase.

SMILES strings stand for the structures.

In the case of `CCOc1cc(-n2cncn2)cnc1Nc1n[nH]c2cc([C@@H]3C[C@@]34C(=O)Nc3ccc(OC)cc34)ccc12` [Example 38, (1R,2S)-2-(3-{[3-ethoxy-5-(1H-1,2,4-triazol-1-yl)pyridin-2-yl]amino}-1H-indazol-6-yl)-5′-methoxyspiro[cyclopropane-1,3′-indol]-2′(1′H)-one], the “[Aurora A IC50 (nM)]/[PLK4 IC50 (nM)]” value is 2756.5515.

For `COc1ccc2c(c1)[C@]1(C[C@H]1c1ccc3c(Nc4cc(-c5cscn5)ccc4OC)n[nH]c3c1)C(=O)N2` [Example 15, (1R,2S)-5′-methoxy-2-{3-[2-methoxy-5-(1,3-thiazol-4-yl)anilino]-1H-indazol-6-yl}spiro[cyclopropane-1,3′-indol]-2′(1′H)-one], the “[Aurora A IC50 (nM)]/[PLK4 IC50 (nM)]” value was determined as 146.5230.

For the compound `CCOc1cnc(-c2nccs2)nc1Nc1n[nH]c2cc([C@@H]3C[C@@]34C(=O)Nc3ccc(OC)cc34)ccc12` [Example 44, (1R,2S)-2-(3-{[5-ethoxy-2-(1,3-thiazol-2-yl)pyrimidin-4-yl]amino}-1H-indazol-6-yl)-5′-methoxyspiro[cyclopropane-1,3′-indol]-2′(1′H)-one], the “[Aurora A IC50 (nM)]/[PLK4 IC50 (nM)]” value was found to be 702.5.

Take `COc1ccc2c(c1)[C@]1(C[C@H]1c1ccc3c(Nc4nc(-c5cnco5)ncc4OC)n[nH]c3c1)C(=O)N2` [Example 40, (1R,2S)-5′-methoxy-2-(3-{[5-methoxy-2-(1,3-oxazol-5-yl)pyrimidin-4-yl]amino}-1H-indazol-6-yl)spiro[cyclopropane-1,3′-indol]-2′(1′H)-one]: the “[Aurora A IC50 (nM)]/[PLK4 IC50 (nM)]” value is given as 288.4.

On to `CCOc1cc(-c2cnccn2)ccc1Nc1n[nH]c2cc([C@@H]3C[C@@]34C(=O)Nc3ccc(OC)cc34)ccc12` [Example 7, (1R,2S)-2-{3-[2-ethoxy-4-(pyrazin-2-yl)anilino]-1H-indazol-6-yl}-5′-methoxyspiro[cyclopropane-1,3′-indol]-2′(1′H)-one], for which the “[Aurora A IC50 (nM)]/[PLK4 IC50 (nM)]” value amounted to 10956.01173.

For the compound `COc1ccc2c(c1)[C@]1(C[C@H]1c1ccc3c(Nc4cc(-c5cocn5)cnc4OC)n[nH]c3c1)C(=O)N2` [Example 42, (1R,2S)-5′-methoxy-2-(3-{[2-methoxy-5-(1,3-oxazol-4-yl)pyridin-3-yl]amino}-1H-indazol-6-yl)spiro[cyclopropane-1,3′-indol]-2′(1′H)-one], the “[Aurora A IC50 (nM)]/[PLK4 IC50 (nM)]” value is 157.8304.

On to `COc1ccc2c(c1)[C@]1(C[C@H]1c1ccc3c(Nc4cc(-c5cnn(C)c5)cnc4OC)n[nH]c3c1)C(=O)N2` [Example 26, (1R,2S)-5′-methoxy-2-(3-{[2-methoxy-5-(1-methyl-1H-pyrazol-4-yl)pyridin-3-yl]amino}-1H-indazol-6-yl)spiro[cyclopropane-1,3′-indol]-2′(1′H)-one], for which the “[Aurora A IC50 (nM)]/[PLK4 IC50 (nM)]” value is given as 992.1456.

In the case of `COc1ccc2c(c1)[C@]1(C[C@H]1c1ccc3c(Nc4cc(-c5nccs5)ccc4OC)n[nH]c3c1)C(=O)N2` [Example 14, (1R,2S)-5′-methoxy-2-{3-[2-methoxy-5-(1,3-thiazol-2-yl)anilino]-1H-indazol-6-yl}spiro[cyclopropane-1,3′-indol]-2′(1′H)-one], the “[Aurora A IC50 (nM)]/[PLK4 IC50 (nM)]” value came out at 187.4804.

For the compound `CCOc1cc(-n2cncn2)ccc1Nc1n[nH]c2cc([C@@H]3C[C@@]34C(=O)Nc3ccc(OC)cc34)ccc12` [Example 10, (1R,2S)-2-{3-[2-ethoxy-4-(1H-1,2,4-triazol-1-yl)anilino]-1H-indazol-6-yl}-5′-methoxyspiro[cyclopropane-1,3′-indol]-2′(1′H)-one], the “[Aurora A IC50 (nM)]/[PLK4 IC50 (nM)]” value was 2540.3949.

On to `COc1ccc2c(c1)[C@]1(C[C@H]1c1ccc3c(Nc4cc(-c5cnco5)ccc4OC)n[nH]c3c1)C(=O)N2` [Example 18, (1R,2S)-5′-methoxy-2-{3-[2-methoxy-5-(1,3-oxazol-5-yl)anilino]-1H-indazol-6-yl}spiro[cyclopropane-1,3′-indol]-2′(1′H)-one], for which the “[Aurora A IC50 (nM)]/[PLK4 IC50 (nM)]” value stood at 500.

For the compound `CCOc1cc(-c2cn(C)cn2)ccc1Nc1n[nH]c2cc([C@@H]3C[C@@]34C(=O)Nc3ccc(OC)cc34)ccc12` [Example 29, (1R,2S)-2-{3-[2-ethoxy-4-(1-methyl-1H-imidazol-4-yl)anilino]-1H-indazol-6-yl}-5′-methoxyspiro[cyclopropane-1,3′-indol]-2′(1′H)-one], the “[Aurora A IC50 (nM)]/[PLK4 IC50 (nM)]” value came to 15611.2532.

Turning to `COc1ccc2c(c1)[C@]1(C[C@H]1c1ccc3c(Nc4cc(-c5ccon5)ccc4OC)n[nH]c3c1)C(=O)N2` [Example 32, (1R,2S)-5′-methoxy-2-{3-[2-methoxy-5-(1,2-oxazol-3-yl)anilino]-1H-indazol-6-yl}spiro[cyclopropane-1,3′-indol]-2′(1′H)-one], the “[Aurora A IC50 (nM)]/[PLK4 IC50 (nM)]” value was 325.6348.

Consider `COc1ccc2c(c1)[C@]1(C[C@H]1c1ccc3c(Nc4cc(-c5ncco5)ccc4OC)n[nH]c3c1)C(=O)N2` [Example 13, (1R,2S)-5′-methoxy-2-{3-[2-methoxy-5-(1,3-oxazol-2-yl)anilino]-1H-indazol-6-yl}spiro[cyclopropane-1,3′-indol]-2′(1′H)-one], for which the “[Aurora A IC50 (nM)]/[PLK4 IC50 (nM)]” value was determined as 414.8.

`CCOc1cnc(C#CC(C)(C)O)nc1Nc1n[nH]c2cc([C@@H]3C[C@@]34C(=O)Nc3ccc(OC)cc34)ccc12` [Example 45, (1R,2S)-2-(3-((5-ethoxy-2-(3-hydroxy-3-methylbut-1-yn-1-yl)pyrimidin-4-yl)amino)-1H-indazol-6-yl)-5′-methoxyspiro[cyclopropane-1,3′-indolin]-2′-one]: the “[Aurora A IC50 (nM)]/[PLK4 IC50 (nM)]” value came out at 42971.2230.

In the case of `COc1ccc2c(c1)[C@]1(C[C@H]1c1ccc3c(Nc4nc(-c5cnn(C)c5)ncc4OC)n[nH]c3c1)C(=O)N2` [Example 31, (1R,2S)-5′-methoxy-2-(3-{[5-methoxy-2-(1-methyl-1H-pyrazol-4-yl)pyrimidin-4-yl]amino}-1H-indazol-6-yl)spiro[cyclopropane-1,3′-indol]-2′(1′H)-one], the “[Aurora A IC50 (nM)]/[PLK4 IC50 (nM)]” value is listed as 743.0555.

Turning to `COc1ccc2c(c1)[C@]1(C[C@H]1c1ccc3c(Nc4cc(-c5cnn(C)c5)ncc4OC)n[nH]c3c1)C(=O)N2` [Example 27, (1R,2S)-5′-methoxy-2-(3-{[5-methoxy-2-(1-methyl-1H-pyrazol-4-yl)pyridin-4-yl]amino}-1H-indazol-6-yl)spiro[cyclopropane-1,3′-indol]-2′(1′H)-one], the “[Aurora A IC50 (nM)]/[PLK4 IC50 (nM)]” value was 360.5487.

For the compound `CCOc1ccc(-c2nccs2)cc1Nc1n[nH]c2cc([C@@H]3C[C@@]34C(=O)Nc3ccc(OC)cc34)ccc12` [Example 33, (1R,2S)-2-{3-[2-ethoxy-5-(1,3-thiazol-2-yl)anilino]-1H-indazol-6-yl}-5′-methoxyspiro[cyclopropane-1,3′-indol]-2′(1′H)-one], the “[Aurora A IC50 (nM)]/[PLK4 IC50 (nM)]” value is 1496.6799.

Take `COc1ccc2c(c1)[C@]1(C[C@H]1c1ccc3c(Nc4cc5c(cc4OC)S(=O)(=O)C=C5)n[nH]c3c1)C(=O)N2` [Example 6, 6-methoxy-5-({6-[(1R,2S)-5′-methoxy-2′-oxo-1′,2′-dihydrospiro[cyclopropane-1,3′-indol]-2-yl]-1H-indazol-3-yl}amino)-1H-1-benzothiophene-1,1-dione]: the “[Aurora A IC50 (nM)]/[PLK4 IC50 (nM)]” value was 581.0754.

Consider `COc1ccc2c(c1)[C@]1(C[C@H]1c1ccc3c(Nc4cc(-c5ccsn5)ccc4OC)n[nH]c3c1)C(=O)N2` [Example 30, (1R,2S)-5′-methoxy-2-{3-[2-methoxy-5-(1,2-thiazol-3-yl)anilino]-1H-indazol-6-yl}spiro[cyclopropane-1,3′-indol]-2′(1′H)-one], for which the “[Aurora A IC50 (nM)]/[PLK4 IC50 (nM)]” value worked out at 916.8947.

In the case of `CCOc1ccc(-c2cnn(C)c2)cc1Nc1n[nH]c2cc([C@@H]3C[C@@]34C(=O)Nc3ccc(OC)cc34)ccc12` [Example 37, (1R,2S)-2-{3-[2-ethoxy-5-(1-methyl-1H-pyrazol-4-yl)anilino]-1H-indazol-6-yl}-5′-methoxyspiro[cyclopropane-1,3′-indol]-2′(1′H)-one], the “[Aurora A IC50 (nM)]/[PLK4 IC50 (nM)]” value stood at 27839.6436.

Turning to `CCOc1cc2ccccc2nc1Nc1n[nH]c2cc([C@@H]3C[C@@]34C(=O)Nc3ccc(OC)cc34)ccc12` [Example 8, (1R,2S)-2-{3-[(3-ethoxyquinolin-2-yl)amino]-1H-indazol-6-yl}-5′-methoxyspiro[cyclopropane-1,3′-indol]-2′(1′H)-one], the “[Aurora A IC50 (nM)]/[PLK4 IC50 (nM)]” value was 27382.2563.
